Where two headings read alike, the source gives them in different places.
How the values were obtained:
DAT [1] = molecular target: T1, DAT (Homo sapiens, UniProt Q01959); assay: Binding selectivity of DaT2020 for DAT over SERT
Target sequence in this assay (Q01959 whole entry, species assumed): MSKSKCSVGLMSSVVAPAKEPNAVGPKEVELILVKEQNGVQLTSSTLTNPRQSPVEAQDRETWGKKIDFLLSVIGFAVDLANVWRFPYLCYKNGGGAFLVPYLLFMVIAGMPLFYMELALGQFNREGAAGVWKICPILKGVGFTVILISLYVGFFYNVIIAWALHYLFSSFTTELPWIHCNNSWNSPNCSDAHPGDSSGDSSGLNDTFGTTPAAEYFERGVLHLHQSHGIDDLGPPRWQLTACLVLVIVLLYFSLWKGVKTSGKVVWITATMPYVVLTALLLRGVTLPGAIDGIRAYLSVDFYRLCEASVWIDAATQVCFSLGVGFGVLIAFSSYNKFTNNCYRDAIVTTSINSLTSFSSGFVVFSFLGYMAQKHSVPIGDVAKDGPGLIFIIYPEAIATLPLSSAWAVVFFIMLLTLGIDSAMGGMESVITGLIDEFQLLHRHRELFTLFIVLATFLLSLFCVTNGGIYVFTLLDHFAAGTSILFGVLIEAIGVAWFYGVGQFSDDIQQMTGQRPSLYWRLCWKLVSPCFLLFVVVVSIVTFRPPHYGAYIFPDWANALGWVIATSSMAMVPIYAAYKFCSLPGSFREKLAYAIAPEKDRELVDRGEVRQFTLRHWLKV

DAT in the striatum [2] = molecular target: T2, DAT in the striatum (Homo sapiens, UniProt Q01959); assay: DaT2020 SPECT study: striatal binding ratio over time after IV injection; format: in vivo; conditions: for specific binding ratio reached, as % of average stable binding ratio: within six min after injection
T2 construct: from tissue; host or cells: striatum of living subjects (in vivo SPECT)
Description: The results obtained from administering lower doses of radiolabeled_DaT2020 (5.3 mCi) were modeled from the data obtained using the 8 mCi dose and a 3-headed camera. Within six min after injection of radiolabeled DaT2020, the specific binding ratios of Parkinson's patients and the healthy volunteer group had reached 90% and 74% of the average stable binding ratio of 1.32 and 1.64, respectively, during the previously determined imaging time of 15 min to 45 min post-administration. In contrast, DaTscan takes least 180 min to reach a stable binding ratio.
The subjects used in the study were healthy volunteers (HV) and those with at least mild Parkinson's disease (PD) (Seibyl at al. (2008) “ALTROPANE SPECT in Parkinson's disease patients and healthy controls” (poster). Abs. Movement Dis. Soc. 12th Internat. Con. Parkinson's Disease and Movement Disorders). All subjects were evaluated by a clinician using validated measures to determine if there is evidence of a movement disorder. Any subject using an anti-parkinsonian medication abstained from its use for at least 12 hr prior to the movement disorder evaluation. […]
ROIs were determined using data obtained from about 24 min to 30 min after dose administration, with individual subject ROI sampling of the left and right caudate and putamen and an occipital background region. […]
To determine the striatal binding ratios (SBR) extract total counts within the ROI, total volume, and count density (counts/voxel) from each scan. SBR is calculated as the density of counts (counts per voxel per min) in the striatal region minus the counts in the occipital cortex (background) divided by the density of counts in the occipital background region. The mean striatal SBR scores are calculated as the mean of the left and right caudate and putamen SBR scores.
DaT2020 SBR data over time were abstracted by reading the graphics showing SBR over time for PD patients (Seibyl and Merck, ibid., Appendix 1) (the first scan of two was read), and in Appendix 2 for healthy volunteers (Seibyl and Merck, ibid., Appendix 2).

[3] = Clinical safety and radiation dose of radiolabeled DaT2020 bolus injection; format: in vivo, human
Description: Such buffers include, but are not limited to, ethanol (solvent), sodium hydroxide and acetic acid (pH adjustment), sodium chloride injection (isotonic vehicle). The formulation to be administered as a bolus injection has been shown in sponsored clinical trials to be safe containing a dose of up to about 8 mCi to 10 mCi of radiolabeled DaT2020 and delivered in a total volume of about 2.5 mL to about 5 mL.
The radioactivity of the dose of radiolabeled DaT2020 or of its radiolabeled derivatives, can be determined one with skill in the art, e.g. by a nuclear medicine imaging technician. In addition, the total radioactivity of the actual administered dose is of relevance and not the volume administered to achieve this dose. The exact radioactive dose of the tracer administered is determined by calculating the difference between the radioactivity in the syringe and delivery system before and after injection. After the dose is delivered, the syringe is filled with a volume of saline equal to the administered dose volume. The syringe content is recounted under the same conditions as used to determine the dose; separately. […]

DAT in the striatum [4] = molecular target: T2, DAT in the striatum; conditions: imaging time 15 min to 45 min post-administration, cited from earlier work
DAT [5] = molecular target: T1, DAT; conditions: DAT sites per one SERT site; package insert; cited from earlier work
Target sequence in this assay (Q01959 whole entry, species assumed): as above

DAT in the striatum [6] = molecular target: T2, DAT in the striatum; conditions: cited from earlier work; for time after injection to stable binding to striatal DAT: DaTscan, IV injection, SPECT
DAT [7] = molecular target: T1, DAT; set-up: host or cells: brain tissue in vivo; conditions: after binding to transporters other than DAT; package insert; cited from earlier work
Target sequence in this assay (Q01959 whole entry): as the sequence (Q01959 whole entry, species assumed) above

T2 sequence (Q01959 whole entry): as the sequence (Q01959 whole entry, species assumed) above

COC(=O)[C@H]1[C@@H](c2ccc(F)cc2)C[C@@H]2CC[C@H]1N2C/C=C/I [DaT2020, E-2β-carbomethoxy-3β-(4-fluorophenyl)-N-(3-iodo-E-allyl) nortropane]
binding selectivity for DAT over SERT (DAT [1]): 28 fold | specific binding ratio reached, as % of average stable binding ratio (DAT in the striatum [2]; Parkinson's patients): 90% | specific binding ratio reached, as % of average stable binding ratio (DAT in the striatum [2]; healthy volunteer group): 74% | time after administration at which stable binding to DAT occurs (DAT in the striatum [2]; radiolabeled DaT2020, IV injection, SPECT): 15 min | safety of bolus injection in sponsored clinical trials ([3]; dose of up to about 8 mCi to 10 mCi, total volume about 2.5 mL to about 5 mL): safe | effective dose ([3]; for 5 mCi of radiolabeled DaT2020): approximately 4.3 mSv | average stable binding ratio (SBR) (DAT in the striatum [4]; Parkinson's patients): 1.32 | average stable binding ratio (SBR) (DAT in the striatum [4]; healthy volunteer group): 1.64

COC(=O)[C@H]1[C@@H](c2ccc(I)cc2)C[C@@H]2CC[C@H]1N2CCCF [DaTscan, N-ω-fluoropropyl-2β-carbomethoxy-3β-(4-iodophenyl) nortropane]
DAT sites bound for every one SERT site (DAT [5]): two to three | time after injection to stable binding to striatal DAT (DAT in the striatum [6]): 3 h | time after injection to stable binding to striatal DAT (DAT in the striatum [6]; listed as [^123I]-FP-CIT): 3 h | time for which binding remains stable (DAT in the striatum [6]; after reaching stable binding 3 hr post-injection): 3 h | DaTscan available for DAT transporter binding in the brain tissue (DAT [7]): about 7%

— patent US20210162078A1, “METHOD FOR DIAGNOSIS OF DO[…] MOVEMENT DISORDERS” (LikeMinds, Inc., priority 2018, published 2021)
